Experimental data from US12202805B2, “Process for preparing (5S)-{[2-(4-carboxyphenyl)ethyl] |2-(2-{|3-chloro-4'-(trifluoromethyl)biphenyl-4-yl]methoxy}phenyl)ethyl]aminol-5,6,7,8-tetrahydroquinoline-2-carboxylic acid and its crystalline forms for use as pharmaceutically active compound” (Bayer Aktiengesellschaft, priority 2021, dated 2025).

Test system: patients with PAH or CTEPH
Experiment: E-2.4 inhaled single doses in patients with PAH or CTEPH: PVR, mPAP (right heart catheterization), safety
Format: in vivo, human
Protocol: E-2.4 Inhaled Administration of Single Doses to Patients with PAH or CTEPH to Investigate the Reduction of Pulmonary Vascular Resistance (PVR)
Patients with PAH or CTEPH aged 18 to 80 years were treated in a clinical phase 1b study with orally inhaled single doses* of 240 μg (2 capsules of 120 μg), 480 μg (1 capsule of 480 μg), 1000 μg (1 capsule of 1000 μg), 2000 μg (2 capsules of 1000 μg) or 4000 μg (4 capsules of 1000 μg) of a dry powder formulation comprising example 4 (see C-1, e.g. tables 17 and 20) inserted into a handheld inhalation device, inhaled by deep inhalative breath into the deep parts of the lung (*single dose means the administration of one dosage form/capsule as well as administration of two or more dosage forms/capsules simultaneously or consecutively within a short time period). The included patients had no background treatment with standard of care (SoC) medication for PAH or CTEPH (such as endothelin antagonists, prostanoids, phosphodiesterase type 5 inhibitor or soluble guanylate cyclase stimulators). Patients in this study underwent invasive right heart catheterization as medically indicated routine diagnostic. Primary objective of the study was to investigate the peak percent reduction from baseline in PVR. Patients had to have a baseline pulmonary artery pressure (mPAP) of ≥25 mmHg and a PVR of ≥400 dyn·sec·cm^−5 (5 Wood Units) and were not to show vaso-responsiveness to initial iNO inhalation testing to be included in the per protocol analysis. Plasma concentrations (pharmacokinetics) of the administered drug at several time points after administration were measured and safety and tolerability was assessed.
The study is divided into two parts, Part A and Part B. In Part A escalating aforementioned single doses were administered to patients without background treatment with standard of care (SoC) medication for PAH or CTEPH (such as endothelin antagonists, prostanoids, phosphodiesterase type 5 inhibitor or soluble guanylate cyclase stimulators). In Part B, after finalization of Part A, a selected dose from PartA will be tested in further patients without background SoC treatment (group 1) and additionally in patients on monotherapy with SoC (group 2) and on dual combination therapy with SoC (group 3).
The PVR is a derived parameter from parameters directly measured during the right heart catheterization procedure. The direct parameters included in the calculation are: mean pulmonary arterial pressure [mmHg](mPAP), pulmonary capillary wedge pressure [mmHg] (PCWP), and cardiac output [1/min] (CO). The PVR is calculated according to the formula: PVR [dyn*sec*cm^−5]=80*(mPAP˜PCWP)/CO.

O=C(O)c1ccc(CCN(CCc2ccccc2OCc2ccc(-c3ccc(C(F)(F)F)cc3)cc2Cl)[C@H]2CCCc3nc(C(=O)O)ccc32)cc1 [example 4, (5S)—{[2-(4-Carboxyphenyl)ethyl][2-(2-{[3-chloro-4′-(trifluoromethyl)biphenyl-4-yl]methoxy}phenyl)-ethyl]amino}-5,6,7,8-tetrahydroquinoline-2-carboxylic acid as Monohydrate I]
changes of systemic blood pressure, heart rate and oxygen saturation (at any dose): did not represent a safety concern
tolerability (including the highest dose of 4000 μg): good tolerability
systemic cGMP (patients with PAH or CTEPH): Increase
duration of sustained effect with no decrease in response (until end of the measurement period): ≥ 3 h
